Measured values reported in patent US20150342190A1, “METHODS FOR LEVERAGING HORMESIS IN PLANT BREEDING AND PLANTS WITH ENHANCED HORMESIS EFFECTS” (PIONEER HI BRED INTERNATIONAL INC, priority 2014, published 2015).
Where two headings read alike, the source gives them in different places.

Experiments:
Format in all cases: in vivo
[1] = test system: soybean line 93Y82BC3 (RR + Als1 + Als2); assay: 2014 field hormesis trial (Example 4)
Description: (§1) The field trial was conducted as a 7×4 factorial experiment (7 herbicide regimes×4 genotypes) in a split block design with main blocks as herbicide treatments. The trial was conducted at 3 different environments (separate field locations) in Iowa during the summer of 2014. Herbicide control treatment #1 (no sulfonylurea) was replicated 12 times within each of the 3 environments (36 reps total). Herbicide treatments 2 through 7 (Table 7) were replicated 6 times at each of the 3 environments (18 reps total). The additional replication of control treatment #1 was done to increase precision of the treatment mean to which all other treatments (#2 through 7) would be compared.
(§2) It is important to note that both tribenuron and rimsulfuron are more toxic to wild type soybeans than other SU's that could also be tested. But treatment with these specific SU's and application rates was intended to push the limits of SU tolerance so that any response differences between lines could be exposed. The 4 genotypes (Table 6) were randomized within each of the main blocks to facilitate post-emergence application of the various herbicide treatments (Table 7). Each experimental unit was a 2-row soybean plot 15 feet long with 30 inch row spacing and a planting density of 8 seeds per foot of row. Planting was done in mid-May and harvest was done in early October at all 3 environments in 2014.
(§3) Several weeks after planting, the entire field was sprayed post-emergence at the V2 (2-leaf) stage with Roundup PowerMax® at 44 oz/acre (30 oz/acre ai glyphosate) with the addition of ammonium sulfate at a rate of 8 lb per 100 gallons as according to label. Several days later at the V3 (3-leaf) stage, herbicide treatments 2 through 7 (Table 7) were applied according to label directions including the addition of ammonium sulfate at a rate of 8 lb per 100 gallons of spray solution. Randomly embedded control plots of a given soybean genotype facilitated side-by-side visual estimates of herbicide injury. Plots were given visual injury ratings at 14 days after herbicide treatment (14 DAT). Visual injury estimates were assigned to reflect the crop response (a combination of reduced vigor and/or chlorosis) of sprayed rows in relation to the randomly embedded control plots. Injury scores were based on a 0-100% scale, with 0 indicating no crop response and 100 indicating all plants killed.
(§4) At maturity, the seed from each plot was harvested with weight and moisture recorded. Weights were then adjusted to 13% moisture content and reported in units of bushels per acre (bu/a). Yields were also converted to % of control on a “per line” and “per environment” basis. For example, the average yield of SU-treated 93Y92BC3 plots were compared to the average yield of 93Y92BC3 control plots within a given environment and then averaged across environments.

[2] = test system: soybean line 93Y92BC3 (RR + Als1 + Als2); assay: 2014 field hormesis trial (Example 4)
Description: as §1, §2, §3, §4

[3] = test system: soybean line BC44883336 (ALS1 + ALS2); assay: Field yield trial with herbicide treatments (Example 2); details: full herbicide concentration (Tribenuron 1.0X) at V3
Description: (§5) Table 2 describes the soy lines used and whether ALS1, ALS2, or both herbicide resistant genes were present in each.
(§6) Each of the lines in Table 2 was grown at a density of 150,000 seeds/acre (˜8 seeds per foot of row) in two 30 inch rows. Each line was divided into four groups, and each group of each line was subjected to one of the four herbicide treatments listed in Table 3.
(§7) Group 1 of each line was the control group that received no herbicide treatment. Groups 2, 3, and 4 of each line were treated with different concentrations of herbicide corresponding to approximately ¼ strength, ½ strength, and full strength (needed for weed control) respectively of the recommended concentrations of the herbicide DuPont™ Express® w/TotalSol®, which includes Tribenuron, a sulfonylurea herbicide. The herbicide treatment spray solution was prepared according to the label instructions with a non-ionic surfactant and an adjuvant (ammonium sulfate). The herbicide was applied to Groups 2, 3, and 4 during the V3 growth phase, the plants were grown to maturity, and yield measurements were made. Each genotype×herbicide treatment group was replicated six times.

[4] = test system: soybean line BC44883269 (ALS2); assay: as above; details: full herbicide concentration (Tribenuron 1.0X) at V3
Description: as §5, §6, §7

[5] = test system: soybean line BC44883270 (ALS1 + ALS2); assay: as above; details: full herbicide concentration (Tribenuron 1.0X) at V3
Description: as §5, §6, §7

[6] = test system: soybean line BC44883300 (ALS2); assay: as above; details: full herbicide concentration (Tribenuron 1.0X) at V3
Description: as §5, §6, §7

[7] = test system: soybean line 93M94 (RR + Als1)
Description: as §1, §2, §3, §4

[8] = test system: soybean line 94Y02 (RR + Als1)
Description: as §1, §2, §3, §4

soybean lines of Table 2 = assay: Field yield trial with herbicide treatments (Example 2), all lines; details: 1/4 concentration herbicide application (Tribenuron 0.25X) at V3
Description: as §5, §6, §7

[9] = test system: glyphosate tolerant maize inbred line PH19081; assay: Glyphosate treatment of hydroponically grown maize inbreds, shoot fresh weight (Example 5); details: seedling fresh weight
Description: (§8) Seeds from four glyphosate tolerant maize inbred lines (PH1BVW2, PH1PMB1, PHSZB1 and PH19081) were washed in 0.615% NaClO solution for 5 minutes and rinsed with deionized water. They were germinated for one week and then transferred into individual 10″ Deepot tubes (1 seedling/tube), either with foam plugs to suspend the plants in the tubes (Experiments 1 &2) or filled with Turface (Experiments 3 & 4). These tubes were placed into hydroponic growing tanks (100 tubes/tank) with a modified Hoagland's media. At the end of the 2nd week after planting, plants from selected tanks were sprayed with glyphosate solutions equivalent to 1× or 2× of the recommended dosage (1× dosage: 1 quart of liquid Round-Up WeatherMax® per acre, or 21.75 ul/ft2). Separately, three inbred lines without the glyphosate tolerance trait (PH1BVW2, PH1PMB1, and PHSZB1) were treated with the same dosages of glyphosate to confirm the efficacy of the herbicide. The inbred lines without the glyphosate tolerance trait were killed by both glyphosate treatments, as expected. Four weeks after germination, plants were harvested and shoot fresh weight was recorded.

[10] = test system: glyphosate tolerant maize inbred line PH1BVW2; assay: as above; details: seedling fresh weight
Description: as §8

[11] = test system: inbred lines without the glyphosate tolerance trait (PH1BVW2, PH1PMB1, and PHSZB1); assay: Glyphosate efficacy check on non-tolerant maize inbreds (Example 5); details: both glyphosate treatments (1× and 2× of the recommended dosage), spray
Description: as §8

[12] = 0.5x rate at V3, 3 environments
[13] = herbicide treatments 2 and 3 (tribenuron 0.5x and 1x), 14 DAT

## COc1nc(C)nc(N(C)C(=O)NS(=O)(=O)c2ccccc2C(=O)O)n1 [tribenuron]
[1]; 0.5x rate at V3
  Yield as % of control: 101%
  Yield effect: neutral
[1]; [12]
  Yield (bu/a): 61.1 bu/a
[1]; 0.5x rate at V3, 14 DAT
  Visual injury 14 DAT: 3%
[1]; 1x rate at V3
  Yield as % of control: 101%
  Yield effect: neutral
[1]; 1x rate at V3, 3 environments
  Yield (bu/a): 61.3 bu/a
[1]; 1x rate at V3, 14 DAT
  Visual injury 14 DAT: 6%
[1]; 2x rate at V3
  Yield as % of control: 102%
  Yield effect: neutral
[1]; 2x rate at V3, 3 environments
  Yield (bu/a): 61.4 bu/a
[1]; 2x rate at V3, 14 DAT
  Visual injury 14 DAT: 16%
[1]; [13]
  average visual injury: ≤ 6%
[2]; 0.5x rate at V3
  Yield as % of control: 106%
  Yield effect: Positive
[2]; [12]
  Yield (bu/a): 59.4 bu/a
[2]; 0.5x rate at V3, 14 DAT
  Visual injury 14 DAT: 2%
[2]; 1x rate at V3
  Yield as % of control: 104%
  Yield effect: Positive
[2]; 1x rate at V3, 3 environments
  Yield (bu/a): 58.0 bu/a
[2]; 1x rate at V3, 14 DAT
  Visual injury 14 DAT: 5%
[2]; 2x rate at V3
  Yield as % of control: 108%
  Yield effect: Positive
[2]; 2x rate at V3, 3 environments
  Yield (bu/a): 60.0 bu/a
[2]; 2x rate at V3, 14 DAT
  Visual injury 14 DAT: 14%
[2]; [13]
  average visual injury: ≤ 6%
[3]
  yield improvement over the control: ~13%
[4]
  yield decrease: about 32%
[5]
  yield improvement over the control: about 4.5%
[6]
  yield decrease: ~19%
[7]; 0.5x rate at V3
  Yield as % of control: 98%
  Yield effect: neutral
[7]; [12]
  Yield (bu/a): 47.5 bu/a
[7]; 0.5x rate at V3, 14 DAT
  Visual injury 14 DAT: 10%
[7]; 1x rate at V3
  Yield as % of control: 101%
  Yield effect: neutral
[7]; 1x rate at V3, 3 environments
  Yield (bu/a): 48.9 bu/a
[7]; 1x rate at V3, 14 DAT
  Visual injury 14 DAT: 18%
[7]; 2x rate at V3
  Yield as % of control: 87%
  Yield effect: negative
[7]; 2x rate at V3, 3 environments
  Yield (bu/a): 41.9 bu/a
[7]; 2x rate at V3, 14 DAT
  Visual injury 14 DAT: 39%
[8]; 0.5x rate at V3
  Yield as % of control: 99%
  Yield effect: neutral
[8]; [12]
  Yield (bu/a): 58.8 bu/a
[8]; 0.5x rate at V3, 14 DAT
  Visual injury 14 DAT: 9%
[8]; 1x rate at V3
  Yield as % of control: 98%
  Yield effect: neutral
[8]; 1x rate at V3, 3 environments
  Yield (bu/a): 58.2 bu/a
[8]; 1x rate at V3, 14 DAT
  Visual injury 14 DAT: 19%
[8]; 2x rate at V3
  Yield as % of control: 82%
  Yield effect: negative
[8]; 2x rate at V3, 3 environments
  Yield (bu/a): 48.6 bu/a
[8]; 2x rate at V3, 14 DAT
  Visual injury 14 DAT: 39%
Soybean lines of Table 2
  yield relative to the control (hormesis effect): relative yield increase

## O=C(O)CNCP(=O)(O)O [glyphosate]
[9]
  hormesis effect upon application of herbicide: positive hormesis effect
[10]
  hormesis effect upon application of herbicide: positive hormesis effect
[11]
  efficacy of the herbicide on non-tolerant lines: killed

## CCS(=O)(=O)c1cccnc1S(=O)(=O)NC(=O)Nc1nc(OC)cc(OC)n1 [rimsulfuron]
[1]; 0.5x rate at V3
  Yield as % of control: 99%
  Yield effect: neutral
[1]; [12]
  Yield (bu/a): 60.1 bu/a
[1]; 1x rate at V3
  Yield as % of control: 93%
  Yield effect: negative
[1]; 1x rate at V3, 3 environments
  Yield (bu/a): 56.2 bu/a
[1]; 2x rate at V3
  Yield as % of control: 81%
  Yield effect: negative
[1]; 2x rate at V3, 3 environments
  Yield (bu/a): 48.7 bu/a
[2]; 0.5x rate at V3
  Yield as % of control: 107%
  Yield effect: Positive
[2]; [12]
  Yield (bu/a): 59.8 bu/a
[2]; 1x rate at V3
  Yield as % of control: 108%
  Yield effect: Positive
[2]; 1x rate at V3, 3 environments
  Yield (bu/a): 60.5 bu/a
[2]; 2x rate at V3
  Yield as % of control: 89%
  Yield effect: negative
[2]; 2x rate at V3, 3 environments
  Yield (bu/a): 49.9 bu/a
[7]; 0.5x rate at V3
  Yield as % of control: 76%
  Yield effect: negative
[7]; [12]
  Yield (bu/a): 36.7 bu/a
[7]; 1x rate at V3
  Yield as % of control: 51%
  Yield effect: negative
[7]; 1x rate at V3, 3 environments
  Yield (bu/a): 24.7 bu/a
[7]; 2x rate at V3
  Yield as % of control: 41%
  Yield effect: negative
[7]; 2x rate at V3, 3 environments
  Yield (bu/a): 19.6 bu/a
[8]; 0.5x rate at V3
  Yield as % of control: 54%
  Yield effect: negative
[8]; [12]
  Yield (bu/a): 31.7 bu/a
[8]; 1x rate at V3
  Yield as % of control: 33%
  Yield effect: negative
[8]; 1x rate at V3, 3 environments
  Yield (bu/a): 19.5 bu/a
[8]; 2x rate at V3
  Yield as % of control: 21%
  Yield effect: negative
[8]; 2x rate at V3, 3 environments
  Yield (bu/a): 12.2 bu/a
